Source: ChEMBL document CHEMBL5291721, “A preclinical secondary pharmacology resource illuminates target-adverse drug reaction associations of marketed drugs” (Nat Commun, 2023)

How the values were obtained:
[1] = target: Beta-2 adrenergic receptor (Homo sapiens, UniProt P07550)
[2] = target: T1, 5-hydroxytryptamine receptor 1A (Homo sapiens, UniProt P08908)
T1 sequence (P08908 whole entry): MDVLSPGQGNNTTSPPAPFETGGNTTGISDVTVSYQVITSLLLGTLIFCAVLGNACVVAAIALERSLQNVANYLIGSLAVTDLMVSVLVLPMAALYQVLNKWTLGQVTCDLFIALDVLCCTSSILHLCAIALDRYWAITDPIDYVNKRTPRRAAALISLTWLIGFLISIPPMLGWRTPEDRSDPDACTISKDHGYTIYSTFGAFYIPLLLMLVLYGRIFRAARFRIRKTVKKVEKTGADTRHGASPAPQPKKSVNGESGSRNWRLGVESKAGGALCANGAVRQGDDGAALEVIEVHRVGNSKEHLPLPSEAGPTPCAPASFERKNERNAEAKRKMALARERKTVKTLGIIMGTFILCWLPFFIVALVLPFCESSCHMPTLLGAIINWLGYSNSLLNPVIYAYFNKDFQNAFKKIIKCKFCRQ

Melanocortin receptor 4 = Melanocortin receptor 4 (Homo sapiens, UniProt P32245)
Histamine H1 receptor = Histamine H1 receptor (Homo sapiens, UniProt P35367)
[3] = target: T2, Alpha-2B adrenergic receptor (Homo sapiens, UniProt P18089)
T2 sequence (P18089 whole entry): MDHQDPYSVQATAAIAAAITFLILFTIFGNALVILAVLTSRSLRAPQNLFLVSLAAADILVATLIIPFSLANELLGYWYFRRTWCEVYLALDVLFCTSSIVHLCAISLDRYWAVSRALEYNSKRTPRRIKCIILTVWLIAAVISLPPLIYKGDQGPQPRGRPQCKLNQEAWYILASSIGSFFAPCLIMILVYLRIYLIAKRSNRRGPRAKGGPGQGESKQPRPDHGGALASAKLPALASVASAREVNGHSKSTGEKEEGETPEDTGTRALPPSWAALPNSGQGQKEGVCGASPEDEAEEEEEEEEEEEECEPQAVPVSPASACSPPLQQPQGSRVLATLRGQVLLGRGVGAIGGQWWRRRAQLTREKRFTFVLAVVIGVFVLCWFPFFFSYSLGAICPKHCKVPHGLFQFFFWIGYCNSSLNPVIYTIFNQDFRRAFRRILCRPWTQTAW

Androgen receptor = target: T3, Androgen receptor (Rattus norvegicus, UniProt P15207); type: functional
T3 sequence (P15207 whole entry): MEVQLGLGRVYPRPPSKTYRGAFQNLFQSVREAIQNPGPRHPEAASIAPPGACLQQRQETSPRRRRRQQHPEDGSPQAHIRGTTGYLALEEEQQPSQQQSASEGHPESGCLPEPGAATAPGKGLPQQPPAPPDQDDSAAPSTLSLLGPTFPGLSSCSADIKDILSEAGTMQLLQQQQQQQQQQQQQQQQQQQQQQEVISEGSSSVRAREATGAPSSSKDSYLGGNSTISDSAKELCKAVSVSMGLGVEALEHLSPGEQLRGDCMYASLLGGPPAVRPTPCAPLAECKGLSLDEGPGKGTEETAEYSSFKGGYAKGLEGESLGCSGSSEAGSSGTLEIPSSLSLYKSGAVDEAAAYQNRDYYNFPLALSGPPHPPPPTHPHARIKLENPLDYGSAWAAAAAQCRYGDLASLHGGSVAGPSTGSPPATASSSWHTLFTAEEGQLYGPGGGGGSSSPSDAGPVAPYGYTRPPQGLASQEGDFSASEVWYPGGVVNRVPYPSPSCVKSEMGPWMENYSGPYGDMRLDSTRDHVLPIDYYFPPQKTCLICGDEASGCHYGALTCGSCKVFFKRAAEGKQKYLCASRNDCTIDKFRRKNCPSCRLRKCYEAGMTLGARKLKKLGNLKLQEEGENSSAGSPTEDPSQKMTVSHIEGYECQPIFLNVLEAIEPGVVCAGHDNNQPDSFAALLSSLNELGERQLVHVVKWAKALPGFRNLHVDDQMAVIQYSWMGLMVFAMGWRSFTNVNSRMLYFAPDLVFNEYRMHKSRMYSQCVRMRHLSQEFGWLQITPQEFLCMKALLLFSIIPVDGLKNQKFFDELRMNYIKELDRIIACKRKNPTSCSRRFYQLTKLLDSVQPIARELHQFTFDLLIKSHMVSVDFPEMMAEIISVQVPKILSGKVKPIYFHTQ

[4] = target: 5-hydroxytryptamine receptor 2B (Homo sapiens, UniProt P41595)
[5] = target: Neurotensin receptor type 1 (Homo sapiens, UniProt P30989)
Glucagon receptor = Glucagon receptor (Homo sapiens, UniProt P47871)
Also: assay procedure not described here.

Chain of Histamine H1 receptor (P35367 whole entry): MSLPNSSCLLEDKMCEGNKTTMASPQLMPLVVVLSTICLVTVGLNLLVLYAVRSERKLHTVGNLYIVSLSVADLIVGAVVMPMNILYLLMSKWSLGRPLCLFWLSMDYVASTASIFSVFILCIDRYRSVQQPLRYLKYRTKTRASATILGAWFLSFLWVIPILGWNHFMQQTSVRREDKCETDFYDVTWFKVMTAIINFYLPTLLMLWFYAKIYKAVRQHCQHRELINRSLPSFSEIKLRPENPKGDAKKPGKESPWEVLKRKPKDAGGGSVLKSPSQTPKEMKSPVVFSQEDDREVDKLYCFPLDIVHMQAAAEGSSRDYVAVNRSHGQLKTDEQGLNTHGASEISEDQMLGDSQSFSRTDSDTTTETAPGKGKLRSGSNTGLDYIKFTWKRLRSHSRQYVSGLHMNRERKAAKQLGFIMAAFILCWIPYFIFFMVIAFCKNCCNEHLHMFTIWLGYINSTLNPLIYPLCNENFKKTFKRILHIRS
Chain of Beta-2 adrenergic receptor (P07550 whole entry): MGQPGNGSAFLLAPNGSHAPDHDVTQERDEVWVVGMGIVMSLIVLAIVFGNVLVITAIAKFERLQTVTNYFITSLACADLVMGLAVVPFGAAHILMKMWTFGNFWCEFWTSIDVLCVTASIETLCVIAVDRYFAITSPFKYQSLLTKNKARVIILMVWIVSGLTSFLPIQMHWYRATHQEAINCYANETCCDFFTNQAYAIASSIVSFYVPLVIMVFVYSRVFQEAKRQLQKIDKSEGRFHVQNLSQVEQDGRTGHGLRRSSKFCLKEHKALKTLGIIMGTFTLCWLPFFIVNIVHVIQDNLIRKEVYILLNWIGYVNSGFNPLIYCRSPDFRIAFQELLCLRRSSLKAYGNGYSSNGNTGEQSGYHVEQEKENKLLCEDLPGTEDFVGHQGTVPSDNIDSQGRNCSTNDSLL
Chain of 5-hydroxytryptamine receptor 2B (P41595 whole entry): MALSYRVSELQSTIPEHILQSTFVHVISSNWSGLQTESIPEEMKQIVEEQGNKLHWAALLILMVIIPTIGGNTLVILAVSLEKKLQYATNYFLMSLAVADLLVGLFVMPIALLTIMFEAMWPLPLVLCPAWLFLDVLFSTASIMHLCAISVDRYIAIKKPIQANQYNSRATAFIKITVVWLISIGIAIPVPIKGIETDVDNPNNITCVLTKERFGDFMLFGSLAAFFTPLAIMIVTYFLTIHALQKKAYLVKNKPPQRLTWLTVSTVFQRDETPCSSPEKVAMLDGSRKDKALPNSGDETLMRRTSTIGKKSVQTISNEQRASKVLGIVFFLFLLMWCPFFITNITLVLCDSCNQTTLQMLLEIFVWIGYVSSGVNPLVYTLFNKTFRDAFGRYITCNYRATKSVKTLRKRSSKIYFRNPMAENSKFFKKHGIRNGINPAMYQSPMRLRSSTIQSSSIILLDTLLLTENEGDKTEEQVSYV
Chain of Neurotensin receptor type 1 (P30989 whole entry): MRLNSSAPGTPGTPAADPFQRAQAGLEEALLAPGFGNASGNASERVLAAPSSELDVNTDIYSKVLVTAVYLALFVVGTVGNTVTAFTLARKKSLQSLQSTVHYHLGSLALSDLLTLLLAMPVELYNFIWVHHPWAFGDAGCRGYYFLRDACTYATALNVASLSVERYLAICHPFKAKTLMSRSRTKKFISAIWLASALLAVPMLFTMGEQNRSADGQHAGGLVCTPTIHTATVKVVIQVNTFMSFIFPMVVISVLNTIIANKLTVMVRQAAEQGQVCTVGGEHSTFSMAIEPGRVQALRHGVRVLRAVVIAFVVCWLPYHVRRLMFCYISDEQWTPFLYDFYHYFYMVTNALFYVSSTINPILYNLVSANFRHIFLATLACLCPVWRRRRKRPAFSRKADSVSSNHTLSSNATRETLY
Chain of Glucagon receptor (P47871 whole entry): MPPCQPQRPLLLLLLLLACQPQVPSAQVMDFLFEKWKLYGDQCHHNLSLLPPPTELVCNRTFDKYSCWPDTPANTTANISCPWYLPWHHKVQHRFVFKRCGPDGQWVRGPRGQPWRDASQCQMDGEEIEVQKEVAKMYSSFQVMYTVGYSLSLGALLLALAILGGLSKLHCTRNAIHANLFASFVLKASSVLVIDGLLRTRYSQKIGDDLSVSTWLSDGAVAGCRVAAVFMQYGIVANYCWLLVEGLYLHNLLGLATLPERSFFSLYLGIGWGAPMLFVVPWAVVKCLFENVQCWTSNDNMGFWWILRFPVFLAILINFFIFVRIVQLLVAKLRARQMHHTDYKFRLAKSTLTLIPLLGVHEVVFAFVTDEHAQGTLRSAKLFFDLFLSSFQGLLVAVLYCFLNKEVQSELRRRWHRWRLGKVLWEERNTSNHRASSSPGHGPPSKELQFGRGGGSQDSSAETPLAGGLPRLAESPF
Chain of Melanocortin receptor 4 (P32245 whole entry): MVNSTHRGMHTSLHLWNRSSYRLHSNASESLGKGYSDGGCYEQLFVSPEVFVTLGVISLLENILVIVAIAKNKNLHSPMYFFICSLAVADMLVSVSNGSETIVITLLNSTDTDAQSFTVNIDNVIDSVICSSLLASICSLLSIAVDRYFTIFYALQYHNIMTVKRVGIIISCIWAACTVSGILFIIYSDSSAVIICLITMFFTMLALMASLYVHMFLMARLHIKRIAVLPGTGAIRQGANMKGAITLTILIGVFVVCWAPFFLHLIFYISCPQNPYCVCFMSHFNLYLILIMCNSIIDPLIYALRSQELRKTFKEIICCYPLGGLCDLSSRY

Row | Compound | AC50 [1] [µM] | AC50 [2] [µM] | AC50 (Melanocortin receptor 4) [µM] | AC50 (Histamine H1 receptor) [µM] | AC50 [3] [µM] | AC50 (Androgen receptor) [µM] | AC50 [4] [µM] | AC50 [5] [µM] | AC50 (Glucagon receptor) [µM]
1 | CC(/C=C1\SC(=S)N(CC(=O)O)C1=O)=C\c1ccccc1 | > 30 | – | – | – | – | – | – | – | –
2 | O=C1CN2Cc3c(ccc(Cl)c3Cl)N=C2N1 [ANAGRELIDE] | > 10 | > 10 | > 30 | > 10 | > 10 | – | – | – | –
3 | CNCC[C@@H](Oc1ccccc1C)c1ccccc1 [ATOMOXETINE] | – | – | – | – | 23 | > 30 | – | – | –
4 | CO/N=C(\C(=O)N[C@@H]1C(=O)N2C(C(=O)O)=C(COC(N)=O)CS[C@H]12)c1ccco1 [CEFUROXIME] | – | – | – | > 30 | > 30 | – | – | – | –
5 | [H]/N=C(\N/C(=N/[H])NCCCCCCNC(=N)NC(=N)Nc1ccc(Cl)cc1)Nc1ccc(Cl)cc1 [CHLORHEXIDINE] | 6.5 | – | 0.271 | > 10 | 2.4 | – | 0.683 | – | –
6 | Clc1cccc(Cl)c1N=C1NCCN1 [CLONIDINE] | – | > 10 | > 30 | – | – | – | > 10 | > 30 | > 30
7 | CN1C[C@H](C(=O)N[C@]2(C)O[C@@]3(O)[C@@H]4CCCN4C(=O)[C@H](Cc4ccccc4)N3C2=O)C[C@@H]2c3cccc4[nH]cc(c34)C[C@H]21 [DIHYDROERGOTAMINE] | – | 0.0126 | > 30 | – | – | – | 0.0638 | > 30 | > 30
8 | CNCC[C@H](Oc1cccc2ccccc12)c1cccs1 [DULOXETINE] | – | – | 17.8 | 8.8 | 3.9 | – | – | – | –
9 | CCC(=O)O[C@@H](O[P@](=O)(CCCCc1ccccc1)CC(=O)N1C[C@H](C2CCCCC2)C[C@H]1C(=O)O)C(C)C [FOSINOPRIL] | – | – | – | > 30 | > 30 | – | – | – | –
10 | Nc1nc(O)c2ncn(COC(CO)CO)c2n1 [GANCICLOVIR] | > 30 | – | – | – | – | – | – | – | –
11 | Cc1cnc(NC(=O)C2=C(O)c3ccccc3S(=O)(=O)N2C)s1 [MELOXICAM] | > 10 | > 10 | > 30 | – | – | – | > 10 | > 30 | > 30
12 | CC(=O)/N=c1/sc(S(N)(=O)=O)nn1C [METHAZOLAMIDE] | > 10 | – | > 10 | > 10 | > 10 | – | – | – | –
13 | CC[C@@H](CO)NC(=O)[C@@H]1C=C2c3cccc4[nH]cc(c34)C[C@H]2N(C)C1 [METHYLERGONOVINE] | – | – | – | – | – | 18 | 0.0037 | – | –
14 | CC(=O)Oc1ccccc1C(=O)Nc1ncc([N+](=O)[O-])s1 [NITAZOXANIDE] | 7.8 | – | – | > 30 | 8 | – | – | – | –
15 | CN(C)c1cc(CNCC(C)(C)C)c(O)c2c1C[C@H]1C[C@H]3[C@H](N(C)C)C(O)=C(C(N)=O)C(=O)[C@@]3(O)C(O)=C1C2=O [OMADACYCLINE] | – | – | – | > 30 | 30 | > 30 | – | – | –
16 | COc1ccnc(C[S+]([O-])c2nc3ccc(OC(F)F)cc3[nH]2)c1OC (stereo not given) [PANTOPRAZOLE] | > 10 | > 10 | > 30 | – | – | – | > 10 | > 30 | > 30
17 | COc1ccc(Cc2nccc3cc(OC)c(OC)cc23)cc1OC [PAPAVERINE] | – | – | – | – | – | > 30 | – | – | –
18 | NC(=O)c1ncn([C@@H]2O[C@H](CO)[C@@H](O)[C@H]2O)n1 [RIBAVIRIN] | > 10 | – | > 10 | – | – | – | – | – | –
19 | O=C(Nc1c(Cl)cncc1Cl)c1ccc(OC(F)F)c(OCC2CC2)c1 [ROFLUMILAST] | > 30 | – | – | > 30 | > 30 | > 30 | – | – | –
20 | CC(C)N(CCCCOCC(=O)NS(C)(=O)=O)c1cnc(-c2ccccc2)c(-c2ccccc2)n1 [SELEXIPAG] | > 30 | – | – | > 30 | > 30 | > 30 | – | – | –
21 | Cn1c(=O)c2[nH]cnc2n(C)c1=O [THEOPHYLLINE] | > 10 | > 10 | > 30 | – | – | – | – | > 30 | > 30
22 | CN1CCN(CCCN2c3ccccc3Sc3ccc(S(=O)(=O)N(C)C)cc32)CC1 [THIOPROPERAZINE] | – | – | – | 0.33 | 0.15 | – | – | – | –
23 | Cc1cc(CC(=O)O)n(C)c1C(=O)c1ccc(Cl)cc1 [ZOMEPIRAC] | – | – | – | > 30 | > 30 | – | – | – | –
